In patent US20240198337A1, “Bone Marrow on a Chip” (NEW YORK UNIVERSITY, priority 2021, published 2024):

How the values were obtained:
[1] = system: ETV6-RUNX1+ REH and Ph+ SUP-B15 human B-ALL cell lines; assay: Chemo-resistance of engineered human B-ALL BM niches to increasing doses of vincristine (Leukemia-on-a-Chip); assay type: cell-based; details: B-ALL co-cultured with niche cells
From the text: FIG. 4A through FIG. 4G depicts modeling the leukemic bone marrow (BM) niche in a Leukemia-on-a-Chip platform. […] (FIG. 4C) The Hematoxylin and Eosin (H&E) staining image of the in vivo murine leukemic BM niche, with the enlarged area from showing the co-localization of B-ALL cells respectively within the perivascular and endosteal niches. (FIG. 4D) The chemo-resistance was compared between the engineered human BM niches of ETV6-RUNX1+ REH and Ph+ SUP-B15 B-ALL. Each drug concentration had >3 experimental replicates. (FIG. 4E) The cytokine profiles from two B-ALL blasts with and without niche cells were quantified using membrane-based ELISA analysis. (FIG. 4F) The quantification of nuclear (nuc)/cytoplasmic (cyto) ratio of NF-κB in REH and SUP B-ALL within their respective niche models. The ratios for REH and SUP were manually measured from 3 experimental replicates (N>150). […]
The outcome of drugs was defined by the viability of B-ALL cells as a cytotoxic end point after drug treatment. […] The cell viability was quantitatively determined by using Calcein-AM (Thermo Fischer Scientific) and DAPI, which respectively stained the live and dead cells. […] Afterward, cells were observed under a fluorescence microscope, and cellular viability was quantitatively measured by counting the number of objects in the green (live cells) and red (dead cells) channels. […]

[2] = system: murine Ph+ B-ALL cells; assay: Drug resistance testing: B-ALL cell viability in 3D hydrogel devices (Calcein-AM/DAPI); assay type: cell-based; details: NIL 1 μM, PRE 1 μM, VCR 0.1 μM; for B-ALL drug-induced cell death (chemo-resistance): presence of niche cells
Experimental: The outcome of drugs was defined by the viability of B-ALL cells as a cytotoxic end point after drug treatment. B-ALL cells were cultured alone or co-cultured with niche cells in 3D hydrogel devices for 24 hr, and then incubated with 1 μM nilotinib (NIL, Cayman Chemical), 1 μM prednisone (PRE, Sigma), and 0.1 μM vincristine (VCR, Sigma) for 48 hr. The cell viability was quantitatively determined by using Calcein-AM (Thermo Fischer Scientific) and DAPI, which respectively stained the live and dead cells. Briefly, cells were rinsed thrice with PBS and incubated with Calcein-AM and DAPI ([…] and 5 μg/mL in PBS or medium) solution for 30 min at 37° C., followed by a final rinse with PBS. Afterward, cells were observed under a fluorescence microscope, and cellular viability was quantitatively measured by counting the number of objects in the green (live cells) and red (dead cells) channels. Untreated groups of B-ALL cells were used as controls to benchmark the drug resistance of different groups.

[3] = system: REH B-ALL blasts; assay: REH viability cultured with hematopoietic cells under VCR treatment; assay type: cell-based, human; details: 48 hr treatment of 20 nM VCR; co-culture with CD34+ HSPC-derived hematopoietic cells
From the text: FIG. 13A through FIG. 13L depict the results of niche cells functioning disparately to regulate leukemia progression. (FIG. 13A) Membrane-based ELISA analysis of CXCL12 secretion of ECs (Top left) and MSCs (Top right). Western blotting of CXCL12 expression of ECs (Bottom left) and MSCs (Bottom right). (FIG. 13B) VCAM-1 expression of ECs and the quantification result (N>200). (FIG. 13C) OPN expression of 2D cultured MSCs and the quantification result (N>200). (FIG. 13D) The correlation between distance of B-ALL to MSCs and dye retaining ability of B-ALL (N>120). B-ALL with lower DiD intensity was excluded as indicated by the dash line. (FIG. 13E) and (FIG. 13F) The flow cytometric images showing DiD dye retained in B-ALL, i.e. low (Lo), middle (Mid), and high (Hi) intensity. (FIG. 13G) The representative images showing p21 expression in B-ALL located in the perivascular and endosteal niches (N=54). (FIG. 13H) B-ALL viability in the two niches treated with different drugs. (FIG. 13I) NF-κB activation in REH after co-cultured with hematopoietic cells. […] (FIG. 13L) The quantified number of CD34+ cells. […]
The contributing mechanisms from hematopoietic cells was then investigated. […] Furthermore, healthy bone marrow mononuclear cells were cultured with and without REH blasts in the leukemia systems for day 1 and day 9 and the number of CD34+ cells was quantified. […]

CC[C@]1(O)C[C@H]2CN(CCc3c([nH]c4ccccc34)[C@@](C(=O)OC)(c3cc4c(cc3OC)N(C=O)[C@H]3[C@@](O)(C(=O)OC)[C@H](OC(C)=O)[C@]5(CC)C=CCN6CC[C@]43[C@@H]65)C2)C1 [vincristine]
chemotherapy sensitivity (chemo-resistance) of REH versus SUP BM niches [1]: SUP B-ALL co-cultured with niche cells showing more resistant to VCR than REH co-cultured with niche cells
viability of B-ALL cells in perivascular versus endosteal niche ([2]; 2-day treatment): a stronger dormancy and chemo-resistance of B-ALL cells in the endosteal niche
B-ALL eradication (viability) ([2]; absence of niche cells, 48 hr): efficient B-ALL eradication
B-ALL drug-induced cell death (chemo-resistance) ([2]; 48 hr): chemo-resistance phenomenon was confirmed
B-ALL drug-induced cell death (chemo-resistance) ([2]; 48 hr, listed as VCR): partial rescue of drug-induced cell death
REH viability / chemo-resistance with hematopoietic cells [3]: hematopoietic cells also promoted NF-κB activation in B-ALL cells and chemo-resistance to VCR treatment
